Test systems include HCT-116 colon; HOP-62 NSCLC; M14 melanoma; MDA-MB-231 breast; NCI-H460 lung; NCI/ADR-RES ovarian; SK-OV-3 ovarian; SNB-75 CNS; SW-620 colon; HCC-2998 colon.
Test in all cases: NCI anticancer screen, dose series, 48 h

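Briefly, cells in 96-well plates were exposed to five compound concentrations for 48 h, and endpoints were estimated by linear interpolation. At the GI50, growth is halved. The concentration for full growth arrest is given as TGI.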

In the case of `C[C@]12CC[C@@H]3c4ccc(OCC(=O)O)cc4CC[C@H]3[C@@H]1CCC2=O`, the TGI in the assay on HCT-116 colon, in the assay with HOP-62 NSCLC, in the assay with M14 melanoma, in the assay with MDA-MB-231 breast, with NCI-H460 lung and in the assay on NCI/ADR-RES ovarian was > 100 µM in each case. Moreover, the TGI with SK-OV-3 ovarian, with SNB-75 CNS and with SW-620 colon was > 100 µM throughout.
Turning to `CCN(CC)CCCN1C(=O)c2c(c(C)c3c(oc4cc(O)ccc43)c2C)C1=O`, the GI50 is 1.78 µM in the assay on HCC-2998 colon; 1.62 µM in the assay on HCT-116 colon; 1.73 µM in the assay on HOP-62 NSCLC; 1.8 µM in the assay on M14 melanoma; 1.81 µM in the assay on MDA-MB-231 breast; 1.82 µM with NCI-H460 lung. Also, the GI50 is 1.73 µM in the assay on SK-OV-3 ovarian, 1.52 µM with SNB-75 CNS and 1.73 µM in the assay with SW-620 colon. The TGI turned out to be 3.27 µM in the assay on HCC-2998 colon; 3.11 µM in the assay with HCT-116 colon; 3.29 µM in the assay on HOP-62 NSCLC; 3.28 µM with M14 melanoma; 3.47 µM with MDA-MB-231 breast; 3.35 µM with NCI-H460 lung. Besides, the TGI with SK-OV-3 ovarian worked out at 3.2 µM; in the assay with SNB-75 CNS, 2.91 µM; in the assay with SW-620 colon it was 3.25 µM.
As for `Cc1ccc(NC(=O)/C(=N/NC(=O)CC#N)C2C(=O)N(c3ccccc3)N=C2N)cc1C` (stereo not given), the TGI in the assay on HCC-2998 colon, in the assay on HCT-116 colon, in the assay on HOP-62 NSCLC, in the assay with M14 melanoma, in the assay with NCI-H460 lung and in the assay with SK-OV-3 ovarian was > 100 µM in each case. Moreover, the TGI in the assay with SNB-75 CNS and with SW-620 colon was > 100 µM throughout.
Regarding `N#Cc1c(SCc2ccccc2)nc2[nH]c(=S)[nH]c(=S)c2c1-c1ccco1`, the GI50 in the assay with HCT-116 colon is 21.6 µM; in the assay on HOP-62 NSCLC it was 58.4 µM; in the assay with M14 melanoma, > 100 µM; with MDA-MB-231 breast, 39.9 µM; in the assay with NCI-H460 lung it was 32.3 µM; in the assay with NCI/ADR-RES ovarian, 26.6 µM. Besides, the GI50 is > 100 µM in the assay on SK-OV-3 ovarian, > 100 µM with SNB-75 CNS and 33.9 µM in the assay on SW-620 colon. For the same compound, the TGI in the assay with HCT-116 colon was > 100 µM; in the assay with HOP-62 NSCLC, > 100 µM; with M14 melanoma, > 100 µM; in the assay on MDA-MB-231 breast, 71.3 µM; with NCI-H460 lung, > 100 µM; in the assay with NCI/ADR-RES ovarian, > 100 µM. Moreover, the TGI in the assay with SK-OV-3 ovarian, in the assay with SNB-75 CNS and in the assay on SW-620 colon was > 100 µM throughout.
Consider `O=C1OC2(c3ccccc31)c1cc(I)c(O)c(I)c1Oc1c2cc(I)c(O)c1I`, for which the TGI in the assay on HCT-116 colon, in the assay on HOP-62 NSCLC, with M14 melanoma, in the assay on MDA-MB-231 breast, in the assay on NCI-H460 lung and with NCI/ADR-RES ovarian was > 100 µM in each case. Besides, the TGI in the assay with SK-OV-3 ovarian, in the assay with SNB-75 CNS and with SW-620 colon was > 100 µM each time.
`O=C1C(Br)=C(c2ccccc2)C(c2ccccc2)=C1c1ccccc1`: the TGI in the assay on HCC-2998 colon was determined as 15.9 µM; with HCT-116 colon, 3.6 µM; with HOP-62 NSCLC, 23 µM; in the assay on M14 melanoma, 4.46 µM; in the assay with MDA-MB-231 breast it was 6.05 µM; in the assay with NCI-H460 lung it was 18 µM. In addition, the TGI came to 29.3 µM in the assay on SK-OV-3 ovarian, 12.9 µM in the assay with SNB-75 CNS and 3.26 µM with SW-620 colon.
Regarding `CC1CC(C)C(=O)C(C(=O)CC2CC(=O)NC2=O)C1` (stereo not given), the TGI with HCC-2998 colon, in the assay on HCT-116 colon, with HOP-62 NSCLC, in the assay with M14 melanoma, in the assay with NCI-H460 lung and in the assay on SK-OV-3 ovarian was > 100 µM each time. The TGI with SNB-75 CNS and in the assay on SW-620 colon was > 100 µM in each case.
For `COc1ccc2c(c1)/C(=C/c1c(-c3ccc(C)cc3)nc3sc(C)cn13)C(=O)N2`, the GI50 with HCC-2998 colon was 13.4 µM; with HCT-116 colon it was 4.71 µM; in the assay with HOP-62 NSCLC, 19.7 µM; with M14 melanoma, 13.2 µM; in the assay on MDA-MB-231 breast, 13.3 µM; in the assay on NCI-H460 lung, 6.36 µM. For the same compound, the GI50 with SK-OV-3 ovarian is 23.9 µM; with SNB-75 CNS, 11.8 µM; in the assay on SW-620 colon it was 16.8 µM. Further, the TGI was 43.7 µM in the assay with HCC-2998 colon; 18.7 µM in the assay on HCT-116 colon; > 100 µM with HOP-62 NSCLC; 59.1 µM in the assay with M14 melanoma; > 100 µM in the assay with MDA-MB-231 breast; 56.2 µM in the assay with NCI-H460 lung. The TGI with SK-OV-3 ovarian, in the assay on SNB-75 CNS and in the assay with SW-620 colon was > 100 µM each time.
With `CC(=O)Oc1cc2c(=O)oc3c(OC(C)=O)c(OC(C)=O)c(OC(C)=O)c4c(=O)oc(c1OC(C)=O)c2c34`, the TGI was > 100 µM with HCC-2998 colon; 52.6 µM in the assay on HCT-116 colon; > 100 µM in the assay with HOP-62 NSCLC; > 100 µM in the assay with M14 melanoma; > 100 µM in the assay on NCI-H460 lung; > 100 µM in the assay with SK-OV-3 ovarian. Moreover, the TGI with SNB-75 CNS and in the assay with SW-620 colon was > 100 µM in each case.
